Measured values taken from US20100204155A1, “USE OF THE PEPTIDE SFLLR-OH AND MURAMYL DIPEPTIDE AS THERAPEUTIC AGENTS” (priority 2007, published 2010).
Where no end group is shown, it is not given here.

Legend:
[1] = system: hepatitis B virus (HBV) ayw strain; assay: HBV assay in HepG2-2.2.15 cells (TaqMan PCR of secreted HBV DNA); format: cell-based; conditions: 10 micrograms per ml, six days, HBV DNA by TaqMan PCR
Description: HepG2-2.2.15 is a stable cell line containing the hepatitis B virus (HBV) ayw strain genome (ATCC Cat. No. CRL-11997). Antiviral compounds blocking any late step of viral replication such as transcription, translation, pregenome encapsidation, reverse transcription, particle assembly and release can be identified and characterized using this cell line. In this assay, an active compound will reduce the production of secreted HBV from cells, measured by utilizing real time quantitative PCR (TaqMan) assay to directly and accurately measure HBV DNA copies.
HepG2-2.2.15 cells were plated in 96-well microtiter plates. After 16-24 hours the confluent monolayer of HepG2-2.2.15 cells was washed and the medium was replaced with complete medium containing test peptides—10 micrograms per ml—in duplicate. […] Six days following the initial administration of the peptides, the cell culture supernatants was collected, treated with pronase and DNAse and then used in a real-time quantitative TaqMan PCR assay. The PCR-amplified HBV DNA was detected in real-time by monitoring increases in fluorescence signals that result from the exonucleolytic degradation of a quenched fluorescence probe molecule that hybridizes to the amplified HBV DNA. […] Antiviral activity was calculated from the reduction in HBV DNA levels (% virus control). […]

[2] = system: TNF-a spleen cells; assay: Th1/Th2 cytokine profiling assay: TNF-a; format: cell-based; conditions: 10 micrograms per ml; Ovalbumin-restimulated spleen cells of immunized Balb/c mice, 72 hours
Description: (§1) The Balb/c mice (originated in 1923, it is a popular strain and is used in many different research disciplines. Also classified as an inbred from the production of 20 or more successive brother-sister matings, the Balb/c mouse is albino and small in size) were immunized on Days 1, 15, and 29 with Ovalbumin (Ovalbumin is the main protein found in egg white, commonly used to stimulate an immunological reaction in test animals) in PBS (5 micrograms/injection). On day 50, spleens of the mice were harvested (3 weeks after last boost with Ovalbumin). Cells were cultured (2×10^5/well in triplicate) and incubated with culture medium or test peptides—10 micrograms per ml—for 30 min. Thereafter, additional Ovalbumin was added to the cells at 10 micrograms/ml for in vitro restimulation of the cells. 72 hours later, cell supernatants were harvested and assayed using the Becton Dickinson Mouse Th1/Th2 Cytokine CBA Kit.

[3] = system: IFNγ spleen cells; assay: Th1/Th2 cytokine profiling assay: IFNγ; format: cell-based; conditions: 10 micrograms per ml; Ovalbumin-restimulated spleen cells of immunized Balb/c mice, 72 hours
Description: as §1

[4] = system: IL-2 spleen cells; assay: Th1/Th2 cytokine profiling assay: IL-2; format: cell-based; conditions: 10 micrograms per ml; Ovalbumin-restimulated spleen cells of immunized Balb/c mice, 72 hours
Description: as §1

[5] = system: IL-4 spleen cells; assay: Th1/Th2 cytokine profiling assay: IL-4; format: cell-based; conditions: 10 micrograms per ml; Ovalbumin-restimulated spleen cells of immunized Balb/c mice, 72 hours
Description: as §1

[6] = system: IL-5 spleen cells; assay: Th1/Th2 cytokine profiling assay: IL-5; format: cell-based; conditions: 10 micrograms per ml; Ovalbumin-restimulated spleen cells of immunized Balb/c mice, 72 hours
Description: as §1

[7] = system: Primary Human endothelial cells (HUVEC); assay: Endothelial cell migration assay; format: cell-based; conditions: 10 micrograms per ml, 22 hours, combination peptide 1:peptide 2 0.95 mole:1.05 mole
Protocol: Thereafter, designated concentration of testing peptides—10 micrograms per ml—was added in duplicate wells.

[8] = system: HUVEC; assay: Endothelial tube formation assay; format: cell-based, human; conditions: 10 micrograms per ml, 20 hours, combination peptide 1:peptide 2 0.95 mole:1.05 mole
Description: Positive control was vehicle only.

[9] = system: HCMV strain AD169; assay: HCMV plaque formation assay in MRC-5 cells; conditions: for inhibition of HCMV plaque formation as compared to the virus control: 10 micrograms per ml, HCMV AD169, 7-10 days
[10] = system: HIV-1IIIB; assay: HIV-1 antiviral assay in CEM-SS cells (MTS); format: cell-based; conditions: positive controls

| Compound | inhibition of HBV replication as compared to the virus control infection [1] [%] | TNF-a spleen cells; TH1 response (% of control) [2] | IFNγ spleen cells; TH1 response (% of control) [3] | IL-2 spleen cells (% of control) [4] | IL-4 spleen cells; TH2 response (% of control) [5] | IL-5 spleen cells; TH2 response (% of control) [6] | inhibition of the migration of human endothelial cells [7] | inhibition of the tube formation of endothelial cells [8] [%] | inhibition of HCMV plaque formation as compared to the virus control [9] | antiviral activity of positive control compounds (HIV-1 assay) [10] | antiviral activity of positive control compound (HCMV assay) ([9]; positive control, HCMV AD169) |
| --- | --- | --- | --- | --- | --- | --- | --- | --- | --- | --- | --- |
| Ser-Phe-Leu-Leu-Arg-OH (SFLLR-OH) [Peptide 1] | 39.6 | 121.8 % of control | 129.1 % of control | 55.7 % of control | 0.0 % of control | 55.9 % of control | 29% | 12 | did not inhibit | – | – |
| Cc1cn([C@H]2C[C@H](N=[N+]=[N-])[C@@H](CO)O2)c(=O)[nH]c1=O [AZT] | – | – | – | – | – | – | – | – | – | expected levels of antiviral activity | – |
| Nc1nc(O)c2ncn(COC(CO)CO)c2n1 [Ganciclovir, reference compound] | – | – | – | – | – | – | – | – | – | – | expected levels of antiviral activity |
| CC(C)(C)NC(=O)[C@@H]1CN(Cc2cccnc2)CCN1C[C@@H](O)C[C@@H](Cc1ccccc1)C(=O)N[C@H]1c2ccccc2C[C@H]1O [indinavir] | – | – | – | – | – | – | – | – | – | expected levels of antiviral activity | – |
| Ac-muramyl-Ala-D-Glu-NH2 [Peptide 2] | 54.4 | 134.0 % of control | 146.7 % of control | 0.0 % of control | 94.5 % of control | 71.3 % of control | did not inhibit | 27 | did not inhibit | – | – |
